The values that follow come from patent publication US7157455B2, “4-Aminopyrimidine-5-one derivatives” (Hoffmann-La Roche Inc., priority 2003, dated 2007).

The term IC50 denotes the concentration that inhibits the measured activity by half. The term IC90 denotes the concentration at which the effect reaches the 90% level.

One assay deals with human cyclin B-CDK1 (Homo sapiens, UniProt P06493). The assay is described as follows: FlashPlate kinase assay, IC50 measurement, cyclin B-CDK1. In kind it is biochemical. To be noted: Rb protein substrate, 1 μM ATP. As for the experimental part:
(§1) To determine inhibition of Cdk4, Cdk2 and Cdk1 activity, kinase assays were conducted using FlashPlate™ assays (NEN™-Life Science Products). FlashPlate assays were performed using recombinant human cyclin B-CDK1, human cyclin E-CDK2 or human cyclin D1-CDK4 complexes. GST-cyclinE (GST-cycE), CDK2, GST-cyclinB (GST-cycB), CDK1, GST-CDK4 and cyclin D1 (cycD1) cDNA clones in baculovirus vectors were provided by Dr. W. Harper at the Baylor College of Medicine, Houston, Tex. Proteins were co-expressed in High Five™ insect cells and the complex was purified on glutathione Sepharose resin (Pharmacia, Piscataway, N.J.) as previously described (Harper, J. W. et al. Cell 1993, 75, 805–816). A 6×-Histidine tagged truncated form of retinoblastoma (Rb) protein (amino acid 386–928) was used as the substrate for the cycD1-CDK4, cycB-CDK1 and the cycE-CDK2 assays (the expression plasmid was provided by Dr. Veronica Sullivan, Department of Molecular Virology, Roche Research Centre, Welwyn Garden City, United Kingdom). The Rb protein is a natural substrate for phosphorylation by CDK4, CDK2 and CDK1 (see Herwig and Strauss Eur. J. Biochem. Vol. 246 (1997) pp. 581–601 and the references cited therein).
(§2) The expression of the 62 Kd protein was under the control of an IPTG inducible promoter in an M15 E. coli strain. Cells were lysed by sonication and purification was carried out by binding lysates at pH 8.0 to a Ni-chelated agarose column pretreated with 1 mM imidazole. The resin was then washed several times with incrementally decreasing pH buffers to pH 6.0, and eluted with 500 mM imidazole. Eluted protein was dialysed against 20 mM HEPES pH 7.5, 30% glycerol, 200 mM NaCl, and 1 mM DTT. Purified Rb fusion protein stocks were quantitated for protein concentration, aliquoted, and stored at −70° C.
(§3) For all three kinase assays reported herein, 96-well FlashPlates were coated with Rb protein at 10 μg/ml, using 100 μl per well. Plates were incubated at 4° C. overnight or at room temperature for 3 hours on a shaker. To control for nonspecific phosphorylation, one row of wells was coated with 100 μl/well coating buffer (20 mM HEPES, 0.2 M NaCl). Plates were then washed twice with wash buffer (0.01% Tween 20 in phosphate-buffered saline). Compounds to be tested (“test compounds”) were added to the wells at 5× final concentration. Reactions were initiated by immediate addition of 40 μl reaction mix (25 mM HEPES, 20 mM MgCl2, 0.002% Tween 20, 2 mM DTT, 1 μM ATP, 4 nM ^33P-ATP) and a sufficient amount of enzyme to give counts that were at least 10-fold above background. Plates were incubated at room temperature on a shaker for 30 minutes. Plates were washed four times with the wash buffer, sealed, and counted on the TopCount scintillation counter (Packard Instrument Co., Downers Grove, Ill. The percent inhibition of Rb phosphorylation, which is a measure of the inhibition of CDK activity, was determined according to the following formula:
(§4) [formula] where “test compound” refers to the average counts per minute of the test duplicates, “nonspecific” refers to the average counts per minute when no CyclinD/Cdk4, etc., was added, and “total” refers to the average counts per minute when no compound was added. The IC50 value is the concentration of test compound that reduces by 50% the protein-kinase induced incorporation of the radiolabel under the test conditions described. B: Ki Measurement

In a further assay the target is human cyclin D1-CDK4 (Homo sapiens, UniProt P11802). The assay is described as follows: FlashPlate kinase assay, IC50 measurement, cyclin D1-CDK4. To be noted: Rb protein substrate, 1 μM ATP. In kind it is biochemical. The method, then:
as §1, §2, §3, §4

The target in another assay is human cyclin E-CDK2 (Homo sapiens, UniProt P24941). The assay is described as follows: FlashPlate kinase assay, IC50 measurement, cyclin E-CDK2. Format: biochemical. As for the experimental part:
To determine inhibition of Cdk4, Cdk2 and Cdk1 activity, kinase assays were conducted using FlashPlate™ assays (NEN™-Life Science Products). FlashPlate assays were performed using recombinant human cyclin B-CDK1, human cyclin E-CDK2 or human cyclin D1-CDK4 complexes. GST-cyclinE (GST-cycE), CDK2, GST-cyclinB (GST-cycB), CDK1, GST-CDK4 and cyclin D1 (cycD1) cDNA clones in baculovirus vectors were provided by Dr. W. Harper at the Baylor College of Medicine, Houston, Tex.
as §2, §3
[formula] where “test compound” refers to the average counts per minute of the test duplicates, “nonspecific” refers to the average counts per minute when no CyclinD/Cdk4, etc., was added, and “total” refers to the average counts per minute when no compound was added. […] B: Ki Measurement

The next assay deals with HCT116 cells. Briefly: Tetrazolium dye proliferation assay (MTT assay). In kind it is cell-based. To be noted: Homo sapiens, HCT-116; 90% inhibition of cell proliferation, HCT116 colorectal carcinoma cell line. The method, then:
The cell line used was HCT116, a colorectal carcinoma cell line obtained from the American Type Cell Culture Collection (ATCC; Rockville, Md.). The cells were grown in McCoy's 5A medium supplemented with 10% FCS and L-glutamine.
Cells were plated at the appropriate seeding density to give logarithmic growth over the course of the assay in a 96-well tissue culture plate. Plates were incubated overnight at 37° C. in a humidified incubator with 5% CO2. The next day, test compounds were serially diluted to four times the final concentration in the appropriate medium containing 1.2% DMSO. One-fourth final volume of each dilution was added in duplicate to the plates containing cells. The same volume of 1.2% DMSO in medium was added to a row of “control wells” such that the final concentration of DMSO in each well was 0.3%. Wells to which no cells were added served as the “blank.” Wells to which no inhibitor was added served as “no inhibitor control.” The plates were) returned to the incubator, and at set time points (determined by their growth curves) plates were analyzed as described below.
3-(4,5-dimethylthiazole-2-yl)-2,5-diphenyl-2H-tetrazolium bromide (thiazolyl blue; MTT; Sigma) was added to each well to yield a final concentration of 1 mg/ml. Plates were returned to the incubator for 2.5–3 hours at 37° C. The MTT-containing medium was removed and the resulting formazan metabolite was solubilized in 100% ethanol with shaking for 15 minutes at room temperature. Absorbance readings were taken in a microtiter plate reader (Dynatech and Molecular Devices plate readers were used interchangeably) at a wavelength of 570 nm with a 650 nm reference. Percent inhibition (% INH) is calculated by subtracting the absorbance of the blank well from all wells, then subtracting the ratio of the average absorbance of each test duplicate (SAVE) by the average of the controls (CAVE) from 1.00. The final number is then multiplied by 100(% INH=(1.00−SAVE/CAVE)×100).

Setting [1] is: Rb protein substrate, 1 μM ATP, read-out: CDK2 IC50.
Setting [2] is: Rb protein substrate, 1 μM ATP, unit inferred, read-out: CDK2 IC50.

Read-outs that look alike come from different tables or passages of the source.

human cyclin D1-CDK4, sequence (P11802 whole entry): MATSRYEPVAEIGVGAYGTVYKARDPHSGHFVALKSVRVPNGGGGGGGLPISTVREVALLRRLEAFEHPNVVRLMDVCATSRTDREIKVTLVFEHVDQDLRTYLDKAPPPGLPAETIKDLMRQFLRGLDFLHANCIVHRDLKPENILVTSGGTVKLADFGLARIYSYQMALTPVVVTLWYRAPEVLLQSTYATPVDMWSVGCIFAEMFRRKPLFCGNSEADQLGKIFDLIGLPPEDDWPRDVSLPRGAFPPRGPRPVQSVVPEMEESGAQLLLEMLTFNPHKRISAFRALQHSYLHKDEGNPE
human cyclin D1-CDK4, sequence (P24385 whole entry partner): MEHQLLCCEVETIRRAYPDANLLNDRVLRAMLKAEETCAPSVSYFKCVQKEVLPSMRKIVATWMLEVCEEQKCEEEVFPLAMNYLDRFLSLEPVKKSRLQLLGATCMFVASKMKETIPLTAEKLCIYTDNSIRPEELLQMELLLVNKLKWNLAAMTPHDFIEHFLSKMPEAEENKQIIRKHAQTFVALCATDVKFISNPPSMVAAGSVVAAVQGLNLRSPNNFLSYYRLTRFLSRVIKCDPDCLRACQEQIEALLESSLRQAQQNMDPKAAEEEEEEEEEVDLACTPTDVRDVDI
human cyclin B-CDK1, sequence (P06493 whole entry): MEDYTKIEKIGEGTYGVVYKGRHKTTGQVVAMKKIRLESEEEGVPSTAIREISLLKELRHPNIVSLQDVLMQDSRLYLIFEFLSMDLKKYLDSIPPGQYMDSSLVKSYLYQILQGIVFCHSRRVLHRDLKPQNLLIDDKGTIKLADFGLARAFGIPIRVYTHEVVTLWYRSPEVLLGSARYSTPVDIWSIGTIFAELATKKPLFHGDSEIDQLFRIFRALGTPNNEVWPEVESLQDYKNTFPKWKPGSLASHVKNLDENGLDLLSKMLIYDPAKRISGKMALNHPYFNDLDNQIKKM
human cyclin B-CDK1, sequence (P14635 whole entry partner): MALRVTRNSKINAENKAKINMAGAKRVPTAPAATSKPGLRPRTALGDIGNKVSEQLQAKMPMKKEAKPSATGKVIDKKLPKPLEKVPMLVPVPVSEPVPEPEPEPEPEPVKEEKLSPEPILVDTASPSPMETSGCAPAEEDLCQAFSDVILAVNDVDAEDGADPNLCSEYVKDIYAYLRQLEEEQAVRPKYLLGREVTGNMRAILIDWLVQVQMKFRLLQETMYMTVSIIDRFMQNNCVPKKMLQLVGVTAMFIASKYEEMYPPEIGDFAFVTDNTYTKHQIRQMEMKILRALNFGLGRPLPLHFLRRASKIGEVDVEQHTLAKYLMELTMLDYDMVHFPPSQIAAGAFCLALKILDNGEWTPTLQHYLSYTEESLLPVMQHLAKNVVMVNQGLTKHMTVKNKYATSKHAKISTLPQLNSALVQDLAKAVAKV

`COc1ccccc1C(=O)c1cnc(Nc2ccc(N3CCN(C(C)C)CC3)cc2)nc1N` [Example 8, [4-Amino-2-[4-(4-isopropyl-piperazin-1-yl)-phenylamino]-pyrimidin-5-yl]-(2-methoxy-phenyl)-methanone]: the IC50 stood at 3560 nM on human cyclin B-CDK1, 171 nM at human cyclin D1-CDK4 and 10000 nM on human cyclin E-CDK2 (setting [1]). The 90% effect level in the assay on HCT116 cells (IC90) was put at 20900 nM.
For `COC(=O)N1CCCC(Nc2ncc(C(=O)c3ccccc3OC)c(N)n2)C1` (centres unmarked) [Example 54, 3-[4-Amino-5-(2-methoxy-benzoyl)-pyrimidin-2-ylamino]-piperidine-1-carboxylic acid methyl ester], the half-inhibitory concentration (IC50) was 469 nM against human cyclin B-CDK1, 459 nM against human cyclin D1-CDK4 and 713 nM on human cyclin E-CDK2 (setting [1]). Besides, the IC90 in the assay with HCT116 cells came out at 6440 nM.
With `COc1cc(F)c(F)c(F)c1C(=O)c1cnc(NC2CCN(C(C)=O)CC2)nc1N` [Example 204, 1-[4-[4Amino-5-(2,3,4-trifluoro-6-methoxy-benzoyl)-pyrimidin-2-ylamino]-piperidin-1-yl]-ethanone], the results for the IC50 against human cyclin B-CDK1, on human cyclin D1-CDK4 and on human cyclin E-CDK2 (setting [2]) were 128 nM, 10 nM and 51 nM, respectively. The compound also returned an IC90 in the assay with HCT116 cells of 2400 nM.
For `COc1cc(F)c(F)c(F)c1C(=O)c1cnc(NC2CCN(S(C)(=O)=O)CC2)nc1N` [Example 207, [4-Amino-2-(1-methanesulfonyl-piperidin-4-ylamino)-pyrimidin-5-y]-(2,3,4-trifluoro-6-methoxy-phenyl)-methanone], the IC50 against human cyclin B-CDK1 was 5 nM; against human cyclin D1-CDK4, 1 nM; against human cyclin E-CDK2 it was 2 nM. This compound yielded a concentration for an effect of 90% (IC90) with HCT116 cells of 630 nM.
For the compound `COc1ccc(F)c(F)c1C(=O)c1cnc(NC2CCN(S(=O)(=O)CCCN3CCN(C)CC3)CC2)nc1N` [Example 228, (4-Amino-2-[1-[3-(4-methyl-piperazin-1-yl)-propan-1-sulfonyl]-piperidin-4-ylamino]-pyrimidin-5-yl)-(2,3-difluoro-6-methoxy-phenyl)-methanone], the IC50 came out at 39 nM against human cyclin B-CDK1, 1 nM on human cyclin D1-CDK4 and 17 nM on human cyclin E-CDK2 (setting [2]). This compound also had a concentration for an effect of 90% (IC90) in the assay on HCT116 cells of 274 nM.
On to `COc1ccc(F)c(F)c1C(=O)c1cnc(N[C@H]2CC[C@H](NCCO)CC2)nc1N` [Example 290, Trans-[4-Amino-2-[4-(2-hydroxy-ethylamino)-cyclohexylamino]-pyrimidin-5-yl}-(2,3-difluoro-6-methoxy-phenyl)-methanone], for which the 50% inhibitory concentration (IC50) on human cyclin B-CDK1 is 18 nM; against human cyclin D1-CDK4 it was 20 nM; on human cyclin E-CDK2 (setting [1]), 5 nM. Also, the 90% effect level with HCT116 cells (IC90) was put at 179 nM.
For the compound `COc1ccc(F)c(F)c1C(=O)c1cnc(N[C@H]2CC[C@H](NS(=O)(=O)CCCN3CCOCC3)CC2)nc1N` [Example 294, Trans-3-Morpholin-4-yl-propane-1-sulfonic acid [4-[4-amino-5-(2,3-difluoro-6-methoxy-benzoyl)-pyrimidin-2-ylamino]-cyclohexyl]-amide], the half-maximal inhibitory concentration (IC50) against human cyclin B-CDK1 amounted to 8 nM; against human cyclin D1-CDK4, 15 nM; at human cyclin E-CDK2 (setting [1]), 5 nM. This compound also came in with a 90% effect concentration (IC90) in the assay with HCT116 cells of 374 nM.
With `COc1ccc(F)c(F)c1C(=O)c1cnc(N[C@H]2CC[C@H](N3CCCS3(=O)=O)CC2)nc1N` [Example 298, Trans-[4-Amino-2-[4-(1,1-dioxo-1λ^6-isothiazolidin-2-yl)-cyclohexylamino]-pyrimidin-5-yl]-(2,3-difluoro-6-methoxy-phenyl)-methanone], the results for the IC50 against human cyclin B-CDK1, at human cyclin D1-CDK4 and at human cyclin E-CDK2 (setting [1]) were 28 nM, 5 nM and 8 nM, respectively. The same compound displayed an IC90 with HCT116 cells of 320 nM.
